Source: EP4567032A1, “KIF18A INHIBITOR COMPOUND, AND PHARMACEUTICAL COMPOSITION AND PREPARATION METHOD THEREFOR AND USE THEREOF” (Changchun Genescience Pharmaceutical Co., Ltd., priority 2022, dated 2024)

How the values were obtained:
[1] = target: T1, KIF18A (Homo sapiens, UniProt Q8NI77); assay: KIF18A enzyme activity test (ADP Glo); format: biochemical; settings: ADP Glo luminescence, 60 min reaction at room temperature, 1% DMSO
T1 sequence (Q8NI77 1-898): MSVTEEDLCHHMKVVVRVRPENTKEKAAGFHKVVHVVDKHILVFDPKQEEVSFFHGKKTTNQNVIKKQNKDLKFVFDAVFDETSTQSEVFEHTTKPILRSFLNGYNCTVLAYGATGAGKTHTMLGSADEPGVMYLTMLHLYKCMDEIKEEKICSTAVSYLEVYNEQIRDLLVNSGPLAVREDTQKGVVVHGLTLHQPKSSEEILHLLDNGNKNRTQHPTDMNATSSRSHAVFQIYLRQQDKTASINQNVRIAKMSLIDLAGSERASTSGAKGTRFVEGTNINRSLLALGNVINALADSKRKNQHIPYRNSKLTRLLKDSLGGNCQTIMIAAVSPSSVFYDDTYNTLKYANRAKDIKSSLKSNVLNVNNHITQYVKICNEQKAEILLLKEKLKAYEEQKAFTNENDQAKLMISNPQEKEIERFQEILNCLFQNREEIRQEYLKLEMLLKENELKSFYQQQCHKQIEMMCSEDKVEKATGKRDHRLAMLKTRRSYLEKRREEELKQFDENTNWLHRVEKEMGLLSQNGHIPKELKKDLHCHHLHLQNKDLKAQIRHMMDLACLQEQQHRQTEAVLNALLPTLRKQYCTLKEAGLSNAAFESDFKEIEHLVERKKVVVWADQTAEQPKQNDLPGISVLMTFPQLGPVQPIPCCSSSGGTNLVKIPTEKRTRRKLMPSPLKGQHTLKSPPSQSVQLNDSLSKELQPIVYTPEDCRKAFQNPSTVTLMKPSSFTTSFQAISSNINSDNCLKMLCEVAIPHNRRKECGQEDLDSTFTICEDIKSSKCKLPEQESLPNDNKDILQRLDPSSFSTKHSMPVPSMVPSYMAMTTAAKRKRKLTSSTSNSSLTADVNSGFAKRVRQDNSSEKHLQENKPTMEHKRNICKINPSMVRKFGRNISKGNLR
Experimental: Test name: KIF18A enzyme activity test
• 1) Compound dilution and treatment: The final concentrations of AM-5308: 10000, 3333.3, 1111.1, 370.3, 123.4, 41.1, 13.7, 4.5, 1.5, 0.5 nM, the final testing concentrations of the testing compound: 10000, 3333.3, 1111.1, 370.3, 123.4, 41.1, 13.7, 4.5, 1.5 and 0.5 nM. • 2) To each well of the reaction plate, 100 nL of the diluted compound stock solution was transferred using Echo 655. The final concentration of DMSO was 1%. • 3) The reaction plate was sealed with a sealing membrane and centrifuged at 1000g for 1 min. • 4) A 2× enzyme solution was prepared with 1× reaction buffer. • 5) To each well of the reaction plate, 5 µL of 2×enzyme solution was added. The plate was sealed with a sealing membrane, centrifuged at 1000g for 1 min and left at room temperature for 15 min. • 6) A 2× ATP solution was prepared with 1× reaction buffer. • 7) To the reaction plate, 5 µL of 2×ATP solution was added, the plate was centrifuged at 1000g for 1 min, and the reaction was started. • 8) The system was allowed to react at room temperature for 60 min. • 9) 10 µL of ADP Glo reagent was added. The system was centrifuged at 1000 g for 1 min and incubated at room temperature for 60 min. • 10) 20 µL of kinase detection reagent was added. The system was centrifuged at 1000 g for 1 min, and incubated at room temperature for 60 min. • 11) The system was centrifuged at 1000 g for 1 min. • 12) The luminescence signals were read on Envision 2104.
The inhibition percentage is calculated as follows: %inhibition = 100−(Signalcmpd−SignalAve_PC)/(SignalAve_VC−SignalAve_PC) × 100 [formula] • Signalcmpd: Average value of the test compound on the reaction plate. • SignalAve_PC: Average value of the positive control (AM-5308) on the reaction plate. • SignalAve_VC: Average value of the negative control (DMSO) on the reaction plate.
IC50 was calculated and the dose-effect curve was fit: The IC50 of the compound was obtained by non-linear fitting formula with GraphPad 8.0.
Z factor > 0.5; S/B > 2. Table 2 Enzyme activity data for the compound of the present application

[2] = system: OVCAR-3 cells; assay: imaging-based nuclear count analysis (NCA) in OVCAR-3 cells; format: cell-based; settings: Homo sapiens, 96 h, cultured 4 days, Hoechst 33342 nuclear count, 0.1% DMSO
Experimental: Test name: imaging-based nuclear count analysis (NCA) in OVCAR-3 cells
• a) When the cell confluence reached 80%-90%, the cells were treated. • b) The cells were resuspended in a medium and then counted and diluted at a desired density. • c) A cell suspension containing appropriate cells was added to the 384-well plate at 30 µL/well: 600 cells/well.
• a) 30 µL of 8% fixative (final concentration 4%) was added and the plate was incubated at room temperature for 30 min. • b) The plate was centrifuged at 1000RPM for 30s. • c) The plate was washed twice with 60 µl/well PBS. • d) After immobilization, the cells were permeabilized and stained in 60 µL of a wash buffer containing 2 µg/mL Hoechst 33342 DNA dye (1% BSA, 0.2% Triton X-100, 1X PBS). • e) The plate was sealed and incubated at room temperature in the dark for 1 h. • f) It was washed with PBS 3 times. • g) 50µLPBS/well was added and the plate was scanned using HCS. • h) Data acquisition and detection
High-reading control wells: cells + 30 nL DMSO; low-reading control wells: 10 µM AM-5308.
IC50 (nM) was calculated using GraphPad Prism 8 software and the effect-dose curves of the compound were plotted. Table 1 Bioactivity data of the compound of the present application

| IC50 [1] [nM] | IC50 [2] [nM] | SMILES |
| --- | --- | --- |
| 13.7 | 72.2 | O=C(Nc1cccc2c1nc1n2CCC1)c1ccc(NS(=O)(=O)CCO)cc1N1CCC2(CC1)CC2 [Compound 36, N-(2,3-dihydro-1H-benzo[d]pyrrolo[1,2-a]imidazol-5-yl)-4-(2-hydroxyethanesulfonylamino)-2-(6-azaspiro[2.5]octan-6-yl)benzamide] |
| 15.1 | 36.1 | O=C(Nc1cccc2c1nc1n2CCC1(F)F)c1ccc(NS(=O)(=O)CCO)cc1N1CCC2(CC1)CC2 [Compound 94, N-(3,3-difluoro-2,3-dihydro-1H-benzo[d]pyrrolo[1,2-a]imidazol-5-yl)-4-(2-hydroxyethanesulfonylamino)-2-(6-azaspiro[2.5]octan-6-yl)benzamide] |
| 8.97 | 89.7 | O=C(Nc1cccc2c1nc1n2C2CCC1C2)c1ccc(NS(=O)(=O)CCO)cc1N1CCC2(CC1)CC2 (stereo not drawn) [Compound 96, 4-(2-hydroxyethanesulfonylamino)-2-(6-azaspiro[2.5]octan-6-yl)-N-(1,2,3,4-tetrahydro-1,4-methylenebenzo[4,5]imidazo[1,2-a]pyridin-6-yl)benzamide] |
| 5.35 | 60.9 | O=C(Nc1cccc2c1nc1n2[C@H]2CC[C@@H]1C2)c1ccc(NS(=O)(=O)CCO)cc1N1CCC2(CC1)CC2 [Compound 96a, 4-(2-hydroxyethanesulfonylamino) -2-(6-azaspiro[2.5]octan-6-yl)-N-((1S,4R)-1,2,3,4-tetrahydro-1,4-methylenebenzo[4,5]imidazo [1,2-a]pyridin-6-yl)benzamide] |
| 9.09 | 58.8 | O=C(Nc1cccc2c1nc1n2CCCCC1)c1ccc(NS(=O)(=O)CCO)cc1N1CCC2(CC1)CC2 [Compound 97, 4-(2-hydroxyethanesulfonylamino)-2-(6-azaspiro[2.5]octan-6-yl)-N-(7,8,9,10-tetrahydro-6H-benzo[4,5]imidazo[1,2-a]azepin-4-yl)benzamide] |
| 26.5 | 170 | CC1CCCn2c1nc1c(NC(=O)c3ccc(NS(=O)(=O)CCO)cc3N3CCC4(CC3)CC4)cccc12 (stereo not drawn) [Compound 98, 4-(2-hydroxyethanesulfonylamino)-N-(4-methyl-1,2,3,4-tetrahydrobenzo[4,5]imidazo[1,2-a]pyridin-6-yl)-2-(6-azaspiro[2.5]octan-6-yl)benzamide] |
